Laboratory results as given in ChEMBL document CHEMBL4725291, “Design, synthesis and biological evaluation of novel glyoxalase I inhibitors possessing diazenylbenzenesulfonamide moiety as potential anticancer agents” (Bioorg Med Chem, 2020).
pIC50: −log10 of the molar value.

Tests used:
Lactoylglutathione lyase [1] = target: T1, Lactoylglutathione lyase (Homo sapiens, UniProt Q04760); experiment: Inhibition of recombinant human N-terminal Met and 6-His-tagged Glyoxalase-1 (Ala2 to Met184 residues) at 25 uM using glutathione and methylglyoxal as substrates preincubated for 15 mins followed by enzyme addition by double beam UV-vis spectrophotometric method relative to control
Target sequence in this assay (Q04760 2-184 limits assumed): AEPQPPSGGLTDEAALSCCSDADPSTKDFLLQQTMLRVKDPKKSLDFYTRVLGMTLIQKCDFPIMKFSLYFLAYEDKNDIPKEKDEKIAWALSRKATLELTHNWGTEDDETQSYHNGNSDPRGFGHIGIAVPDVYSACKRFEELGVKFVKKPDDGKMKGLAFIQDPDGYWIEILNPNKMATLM

Lactoylglutathione lyase [2] = target: T1, Lactoylglutathione lyase; experiment: Inhibition of recombinant human N-terminal Met and 6-His-tagged Glyoxalase-1 (Ala2 to Met184 residues) using glutathione and methylglyoxal as substrates preincubated for 15 mins followed by enzyme addition by double beam UV-vis spectrophotometric method
Target sequence in this assay (Q04760 whole entry): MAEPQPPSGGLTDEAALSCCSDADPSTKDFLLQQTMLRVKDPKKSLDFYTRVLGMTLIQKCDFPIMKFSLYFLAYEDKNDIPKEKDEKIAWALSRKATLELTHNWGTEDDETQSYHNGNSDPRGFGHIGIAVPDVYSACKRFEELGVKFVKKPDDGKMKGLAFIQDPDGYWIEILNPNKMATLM

Compound	inhibition (Lactoylglutathione lyase [1]) [%]	pIC50 (Lactoylglutathione lyase [2])
Cc1ccc(/N=N/c2ccc(O)c3ncccc23)cc1S(N)(=O)=O	92.1	5.89
Cc1ccc(/N=N/c2c(O)ccc3cccc(N)c23)cc1S(N)(=O)=O	54	4.62
Cc1ccc(/N=N/c2cc3ccccc3c(C(=O)O)c2O)cc1S(N)(=O)=O		< 4.00
Cc1ccc(/N=N/c2ccc(N)c3cc(O)ccc23)cc1S(N)(=O)=O	57.2	4.72
Nc1ccc(/N=N/c2cccc(S(N)(=O)=O)c2)c2ccccc12	28.1	4.07
Nc1ccc(/N=N/c2cccc(S(N)(=O)=O)c2)c2ccc(O)cc12	66	4.66
NS(=O)(=O)c1cccc(/N=N/c2cc(C(=O)O)c(O)c3ccccc23)c1	96.5	5.91
O=C(O)c1cccc(/N=N/c2ccc(O)c3ncccc23)c1	90.7	5.36
O=C(O)c1ccc(/N=N/c2ccc(O)c3ncccc23)cc1	79.9	5.35
NS(=O)(=O)c1cccc(/N=N/c2ccc(O)c(C(=O)O)c2)c1	76.5	5.06
O=S(=O)(O)c1ccc(/N=N/c2ccc(O)c3ncccc23)cc1	75	5.01
NS(=O)(=O)c1cccc(/N=N/c2cc3ccc(=O)oc3cc2O)c1	64.4	4.72
Cc1ccc(/N=N/c2ccc(N)c3cccc(O)c23)cc1S(N)(=O)=O		< 4.00
NS(=O)(=O)c1cccc(/N=N/c2ccc(O)c3ncccc23)c1	98.3	5.87
Cc1ccc(/N=N/c2c(O)ccc3ccccc23)cc1S(N)(=O)=O	34.5	4.35
NS(=O)(=O)c1cccc(/N=N/c2c(O)ccc3ccccc23)c1	39	4.43
Cc1ccc(/N=N/c2cc(C(=O)O)c(O)c3ccccc23)cc1S(N)(=O)=O	100	5.95
Cc1ccc(/N=N/c2ccc(O)c(C(=O)O)c2)cc1S(N)(=O)=O	67.7	4.94
NS(=O)(=O)c1cccc(/N=N/c2ccc(O)c3ccccc23)c1	38.3	4.28
Cc1ccc(/N=N/c2ccc(N)c3ccc(O)cc23)cc1S(N)(=O)=O	76.4	
Cc1ccc(/N=N/c2cc3ccc(=O)oc3cc2O)cc1S(N)(=O)=O	59	4.75
NS(=O)(=O)c1cccc(/N=N/c2ccc(O)cc2)c1	59.9	4.87
Oc1ccc(/N=N/c2ccccc2)c2cccnc12	82.8	5.04
Cc1ccc(/N=N/c2cc3ccccc3c(C=O)c2O)cc1S(N)(=O)=O	57.4	4.73
Cc1ccc(/N=N/c2ccc(N)c3ccccc23)cc1S(N)(=O)=O	24.7	4.02
